From PubChem BioAssay (NCI) come the findings set out here.

Test systems include SN12C renal; HT29 colon; SF-295 CNS; DMS 114 small cell lung; HOP-62 NSCLC; CAKI-1 renal; COLO 205 colon; SR leukemia; EKVX NSCLC; RXF 393 renal.
Holding throughout (test): NCI-60 cell line screen, 48 h

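Each compound was tested at five concentrations against cells in 96-well plates for 48 hours. Abbreviation: GI50, concentration required for 50% inhibition of growth. TGI marks complete inhibition of growth.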 Bounds are passed on as bounds.

Take `C/C(=C1/N=C(c2cc([N+](=O)[O-])ccc2Cl)N(C2=CC=C(Cl)CC2)C1=O)c1cc2ccccc2oc1=O`: the TGI in the test on SN12C renal, with HT29 colon, in the test on SF-295 CNS, with DMS 114 small cell lung, in the test on HOP-62 NSCLC and in the test with CAKI-1 renal was above 100 µM each time. The TGI in the test with COLO 205 colon, with SR leukemia and in the test with EKVX NSCLC was above 100 µM each time.

As to `CCCCN(CCCC)c1ccc(N=Nc2ccc(S(=O)(=O)O)cc2)cc1`, the TGI in the test on RXF 393 renal was 29.8 µM; with SN12C renal, 85 µM; in the test on HT29 colon, 85.1 µM; with SF-295 CNS, above 100 µM; in the test on CAKI-1 renal, 49.6 µM; with COLO 205 colon it was 37.8 µM. The TGI in the test with EKVX NSCLC is above 100 µM.

Consider `CC1=CC[C@H](C)C(C)(C)C1/C=C/C(C)=C/CC[C@@]1(CO)[C@H](CCCO)/C(=C(/C)C=O)CC[C@]1(C)O` (stereo not given in full), for which the TGI in the test on RXF 393 renal amounted to 28.1 µM; with SN12C renal it was 19.1 µM; in the test with HT29 colon it was 12.1 µM; with SF-295 CNS, 13.9 µM; in the test on CAKI-1 renal, 10.5 µM; in the test on COLO 205 colon, 3.51 µM. Besides, the TGI in the test on SR leukemia turned out to be 24.3 µM; with EKVX NSCLC, 4.48 µM.

With `CC(=O)/C=C/c1c[nH]c(=O)[nH]c1=O`, the TGI in the test on RXF 393 renal stood at 416 µM; in the test on SN12C renal, 573 µM; with HT29 colon it was 847 µM; in the test on SF-295 CNS, 751 µM; with DMS 114 small cell lung, 585 µM; with HOP-62 NSCLC, 765 µM. The TGI in the test with CAKI-1 renal was found to be 178 µM; with COLO 205 colon it was 395 µM; in the test on EKVX NSCLC it was 570 µM.

For `Cc1cc(S(N)(=O)=O)c(S/C(=N\Nc2ccc([N+](=O)[O-])cc2)c2ccc(Cl)cc2)cc1Cl`, the TGI with RXF 393 renal was 3.49 µM; in the test on SN12C renal it was 10.9 µM; in the test with HT29 colon, 4.36 µM; with SF-295 CNS, 5.46 µM; with HOP-62 NSCLC it was above 100 µM; in the test on CAKI-1 renal it was 14.9 µM. Also, the TGI was above 100 µM with COLO 205 colon, 9.01 µM with SR leukemia and 28.3 µM in the test on EKVX NSCLC.

As to `O=C(COC(=O)c1ccccc1)c1ccc(Br)cc1`, the TGI with RXF 393 renal amounted to 11.6 µM; in the test on SN12C renal, 29.4 µM; in the test on HT29 colon it was 46.3 µM; with SF-295 CNS, 32 µM; in the test on HOP-62 NSCLC it was 43.8 µM; with CAKI-1 renal it was 6.44 µM. Besides, the TGI with COLO 205 colon was 26.5 µM; in the test on SR leukemia, 7.11 µM; in the test with EKVX NSCLC it was 28 µM.

As to `COc1cc2cnc3c(c2cc1OC)Cc1cc2c(cc1-3)OCO2`, the GI50 in the test with RXF 393 renal was 0.0322 µM; with SN12C renal, above 100 µM; with HT29 colon, below 0.01 µM; in the test with SF-295 CNS, below 0.01 µM; in the test with HOP-62 NSCLC, below 0.0268 µM; in the test with CAKI-1 renal, below 0.01 µM. Besides, the GI50 in the test on COLO 205 colon is below 0.01 µM; in the test with SR leukemia, below 0.01 µM; in the test with EKVX NSCLC, 0.0279 µM. The TGI is above 92.5 µM in the test with RXF 393 renal; above 100 µM with SN12C renal; 73.4 µM in the test on HT29 colon; above 37.6 µM in the test with SF-295 CNS; 17.4 µM in the test on HOP-62 NSCLC; above 74.7 µM with CAKI-1 renal. The TGI was above 100 µM in the test with COLO 205 colon, 0.0145 µM with SR leukemia and 55.9 µM in the test on EKVX NSCLC.

As to `O=S(=O)(O)c1ccc(N=Nc2ccc(N=Nc3ccc(/C=C/c4ccc(N=[N+]([O-])c5ccc(/C=C/c6ccc(N=Nc7ccc(N=Nc8ccc(S(=O)(=O)O)cc8)c8ccccc78)cc6S(=O)(=O)O)c(S(=O)(=O)O)c5)cc4S(=O)(=O)O)c(S(=O)(=O)O)c3)c3ccccc23)cc1`, the TGI in the test with RXF 393 renal, in the test on SN12C renal, with HT29 colon, in the test on SF-295 CNS, in the test on DMS 114 small cell lung and in the test on HOP-62 NSCLC was above 100 µM throughout. The TGI in the test on COLO 205 colon and with EKVX NSCLC was above 100 µM throughout.

With `Nc1ccccc1Sc1ccc(Cl)cc1`, the TGI was 32.1 µM with RXF 393 renal; 56.1 µM in the test with SN12C renal; 36.3 µM in the test with HT29 colon; above 100 µM in the test with SF-295 CNS; 59.3 µM in the test with DMS 114 small cell lung; above 100 µM in the test on HOP-62 NSCLC. The TGI in the test with COLO 205 colon is 44.1 µM; with SR leukemia, 57.8 µM; in the test on EKVX NSCLC, 76.9 µM.

On to `COc1cccc(NC(=O)N/C(=C/c2ccc(N(CCC#N)CCC#N)cc2)NC(=O)c2cc([N+](=O)[O-])ccc2Cl)c1`, for which the TGI in the test on RXF 393 renal, in the test with SN12C renal, in the test with SF-295 CNS, in the test on DMS 114 small cell lung, in the test with HOP-62 NSCLC and in the test with CAKI-1 renal was above 100 µM in each case. Besides, the TGI in the test on COLO 205 colon, in the test with SR leukemia and in the test with EKVX NSCLC was above 100 µM in each case.

For the molecule `CNC=O`, the TGI in the test on RXF 393 renal was above 10000 µM; in the test on SN12C renal, above 7740 µM; with HT29 colon, above 10000 µM; in the test on SF-295 CNS, above 10000 µM; with DMS 114 small cell lung, above 10000 µM; in the test with HOP-62 NSCLC, below 3980 µM. In addition, the TGI in the test on CAKI-1 renal, with COLO 205 colon, in the test on SR leukemia and in the test with EKVX NSCLC was above 10000 µM in each case.
